SMILES strings stand for the structures. “Also recorded” adds a separate entry of the source. Read-outs that look alike come from different tables or passages of the source.

Series [1] concerns N27 cells. Nature of the series: MPP+ induced neurotoxicity in N27 cells (MTS assay). The class given is cell-based, rat. To be noted: 300 μM MPP+, compound 0.1 nM-10 μM, 24 hours. The method, then: Cells were co-treated with 300 μM MPP^+ in the presence and absence of compounds for 24 hours. Treatments were made in complete RPMI medium containing 2% FBS.
N27 cells were treated with 300 μM of MPP^+ in the presence and absence of compounds (PD180970 or AGK-2) in a concentration range of 0.1 nM-10 μM and incubated for 24 hours. MPP^+ (300 μM) treated N27 cells was used as control. MTS assay was used to check the cell viability in order to investigate the neuroprotective potential of the compounds. None of the compounds could rescue MPP^+ treated dopaminergic N27 cells.

Series [2] concerns N27 cells. To be noted: 30 hours; for neuroprotective effect on N27 cell survival: Example 2.1; for neuroprotective effect on N27 cell survival / neuronal survival as compared to LPS alone / N27 cell survival (protective effect) vs LPS alone / protective effect in N27 cells: LPS 1 μg/ml; for neuronal survival as compared to LPS alone: Example 2.2; for effect of compound alone on the cells, survival, nitrite release or morphology: compound 1 μM without LPS; for protective effect in N27 cells: Example 5.
Procedure: The survival of the N27 cells was then measured using MTS Assay.
N27 (Rat Dopaminergic cells) and BV2 (Mice Glial Cells) cells were co-cultured in Corning HTS Transwell Plates in RPMI Complete media supplemented with 10% HI-FBS, N27 in the lower well of the 24 well plates and BV2 in the 0.4 μm porous permeable support inserted on top of the 24 well for 24 hours at 37° C., 5% CO2. BV2 cells were treated with 1 μg/ml LPS in the presence and absence of 10 μM of CCND-01, CCND-02, CCND-03 and CCND-04, and 10 mM of NAC for 30 hours at 37° C., 5% CO2. The survival of N27 cells was then measured by performing MTS Assay and taking readings at 490 nm after 30 mins of incubation.
MTS assay was performed to determine the percentage N27 survival.

For series [3], the system named is N27 cells. Nature of the series: Toxicity to N27 cells induced by conditioned media from LPS activated BV2 cells (MTS assay). The class given is cell-based, rat. To be noted: Example 3, FIG. 3, LPS 1 μg/ml, 30 hours.
The test system of series [4] is HEK-Blue™ TLR2 cells. Nature of the series: nF-κB induced SEAP activity in HEK-Blue TLR2 cells. Format: cell-based. Conditions: Pam3CSK4 10 ng/ml, compound 1 nM-100 μM, 12 hours. The method, then: (§1) Hek-Blue TLR-2, TLR-3 and TLR-4 Cells were obtained from InvivoGen (San Diego, Calif.). Culture treatment and assay was performed as per the manufacturers recommended protocol. Cells were treated and incubated for 12 hours, followed by collection of OD values at 620 nm.
(§2) HEK-Blue™ TLR4 cells were treated with LPS and HEK-Blue™ TLR2 were treated with Pam3CSK4 at a concentration of 10 ng/ml for 12 hours in the presence or absence of compounds (PD180970 or AGK-2) at a range of 1 nM-100 μM, and assayed for SEAP activity. LPS ([…]) was used as control for SEAP activity. nF-κB induced SEAP activity was quantified using HEK-Blue™ Detection at 620 nm.

Series [5] concerns N27 cells. Nature of the series: Hydrogen peroxide induced neurotoxicity in N27 cells (MTS assay). The class given is cell-based, rat. Conditions: 75 μM hydrogen peroxide, compound 0.1 nM-10 μM, 8 hours. The method, then:
Cells were co-treated with 75 μM H2O2 in the presence and absence of compounds for 8 hours. Treatments were made in complete RPMI medium containing 2% FBS.
N27 cells were treated with 75 μM hydrogen peroxide in the presence and absence of compounds PD180970 or AGK2 in a concentration range of 0.1 nM-10 μM for 8 hours in 96 well plates. MTS assay was used to check the cell viability in order to investigate the neuroprotective potential of the compounds. Cells with untreated media was used as blank, and cells with media containing 0.1% DMSO (vehicle or solvent for the compounds) was used as vehicle. Hydrogen peroxide (75 μM) treated N27 cells was used as control for.

The test system of series [6] is MCP-1. Nature of the series: LPS induced MCP-1 secretion by BV2 in N27-BV2 co-culture (Luminex multiplexing assay). Conditions: Example 4.3; LPS 1 μg/ml, compound 1 μM, 30 hours. The class given is cell-based, mice. The method, then:
(§3) Luminex multiplexing assay was performed to determine the concentration of IL-6 and MCP-1 released. LPS (1 μg/ml) was used as control for IL-6 release or MCP-1 release.

Series [7] concerns IL-6. Nature of the series: LPS induced IL-6 secretion by BV2 in N27-BV2 co-culture (Luminex multiplexing assay). The class given is cell-based, mice. To be noted: Example 4.3; LPS 1 μg/ml, compound 1 μM, 30 hours. The method, then:
as §3

For series [8], the system named is BV2 cells. Nature of the series: LPS induced nitrite release in BV2 cells (Griess assay). The class given is cell-based, mice. To be noted: Example 1; LPS 1 μg/ml, 48 hours, vs LPS alone. As for the experimental part:
The immortalized rat mesencephalic dopaminergic cells (N27 cells) were grown in RPMI 1640 medium containing 10% Fetal Bovine Serum (FBS), 2 mM L-glutamine, 50 U Penicillin and 50 μg/ml Streptomycin [22]. Mice microglial cells (BV2 cells) were grown in RPMI 1640 medium containing 10% Heat Inactivated Fetal Bovine Serum (HI-FBS). Cells were maintained in a humidified atmosphere of 5% CO2 at 37° C. until they were 60-70% confluent.
BV2 (Mice Glial Cells) cells were treated with LPS at a concentration of 1 μg/ml in the presence or absence of test compounds PD180970 or AGK-2 at a concentrating ranging from 0.1 nM-[…] and incubated for 48 hours at 37° C. at 5% CO2. Griess assay was used to measure nitrite released in order to investigate the anti-inflammatory potential of the compounds. Untreated BV2 cells was used as blank, 0.1% DMSO in media was used as vehicle. LPS (1 μg/ml) was used as control for nitrite release.

The test system of series [9] is BV2 cells. Nature of the series: LPS induced nitrite release by BV2 in N27-BV2 co-culture (Griess assay). Format: cell-based, mice. To be noted: LPS 1 μg/ml, 30 hours.
The test system of series [10] is HEK-Blue™ TLR4 cells. Nature of the series: nF-κB induced SEAP activity in HEK-Blue TLR4 cells. Format: cell-based. Conditions: LPS 10 ng/ml, compound 1 nM-100 μM, 12 hours. As for the experimental part:
as §1, §2

Series [11] addresses T1, ERα (Homo sapiens, UniProt P03372).
T1 sequence (P03372 1-595): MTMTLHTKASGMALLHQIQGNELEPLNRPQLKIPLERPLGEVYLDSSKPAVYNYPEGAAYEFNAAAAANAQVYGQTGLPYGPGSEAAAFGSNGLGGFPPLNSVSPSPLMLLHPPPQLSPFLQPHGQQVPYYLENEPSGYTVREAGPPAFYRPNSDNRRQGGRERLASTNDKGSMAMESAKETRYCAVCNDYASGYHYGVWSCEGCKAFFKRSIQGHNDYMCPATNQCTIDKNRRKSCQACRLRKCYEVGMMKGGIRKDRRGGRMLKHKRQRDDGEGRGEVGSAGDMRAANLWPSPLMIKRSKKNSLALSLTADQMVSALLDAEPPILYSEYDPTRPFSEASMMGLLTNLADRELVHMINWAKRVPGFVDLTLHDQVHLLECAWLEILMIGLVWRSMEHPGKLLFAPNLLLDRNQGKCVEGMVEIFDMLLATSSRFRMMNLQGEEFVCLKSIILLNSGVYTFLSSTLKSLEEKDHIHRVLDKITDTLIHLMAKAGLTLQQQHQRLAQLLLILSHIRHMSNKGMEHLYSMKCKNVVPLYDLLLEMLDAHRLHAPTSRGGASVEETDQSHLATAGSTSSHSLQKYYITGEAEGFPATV
To be noted: at concentrations below 10 μM; cited from earlier work.

The target in series [12] is T2, ERRγ (Homo sapiens, UniProt P62508).
T2 sequence (P62508 1-458): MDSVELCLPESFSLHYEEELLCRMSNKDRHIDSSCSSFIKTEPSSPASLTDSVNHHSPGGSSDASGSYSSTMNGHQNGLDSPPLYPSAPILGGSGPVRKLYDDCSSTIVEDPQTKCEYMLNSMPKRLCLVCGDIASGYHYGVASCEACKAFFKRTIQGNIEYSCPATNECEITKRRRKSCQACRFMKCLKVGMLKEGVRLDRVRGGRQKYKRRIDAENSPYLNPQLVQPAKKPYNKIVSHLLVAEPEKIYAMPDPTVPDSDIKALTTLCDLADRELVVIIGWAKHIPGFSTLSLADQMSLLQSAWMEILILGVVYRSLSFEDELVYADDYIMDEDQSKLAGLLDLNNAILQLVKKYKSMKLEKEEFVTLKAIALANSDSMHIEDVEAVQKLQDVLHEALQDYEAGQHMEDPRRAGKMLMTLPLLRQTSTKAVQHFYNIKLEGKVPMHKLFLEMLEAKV
To be noted: at concentrations below 10 μM; cited from earlier work.

On to `N#C/C(=C\c1ccc(-c2cc(Cl)ccc2Cl)o1)C(=O)Nc1cccc2ncccc12` [AGK-2], for which the “neuroprotective effect on MPP+ induced toxicity” value in [1] was “no significant neuroprotective effect”. Further, the “neuroprotective effect on N27 cell survival” value in series [2] (compound 10 μM) is recorded as “significant neuroprotective effect”. Also, the “neuronal survival as compared to LPS alone” value in [2] (compound 1 μM) was “significant increase in neuronal survival”. For the same compound, the “N27 cell survival (protective effect) vs LPS alone” value (shortened to “N27 cell survival … vs LPS alone”) in series [2] (Example 4, compound 1 μM) was “significant protective effect; also recorded: significant increase in neuronal survival”. Besides, the “effect of compound alone on the cells, survival, nitrite release or morphology” value in [2] (Example 4) was “no effect”. The “protective effect in N27 cells” value in series [2] (compound 10 μM) is “significant protective effect”. Further, the “neuroprotective effect in N27 cells” value in [3] (compound 10 μM) is “significant neuroprotective effect”. Also, the “nF-κB induced SEAP activity” value in series [4] is listed as “not in HEK-Blue™ TLR2 cells”; in series [10] it was “significant inhibitory effect”. In addition, in series [5], the “neuroprotective effect on H2O2 induced toxicity” value is “no significant neuroprotective effect”. Further, the “level of MCP-1 released by LPS induced BV2 cells” value in series [6] was “significant reduction in levels of IL-6 and MCP-1”. In series [7], the “level of IL-6 released by LPS induced BV2 cells” value is on record as “significant reduction in level of IL-6”. In addition, the “levels of nitrite released by LPS treated BV2 cells” value in series [8] is given as “significant reduction in levels of nitrite”. In addition, the “level of nitrite released by LPS induced BV2 cells” value (from here on “level of nitrite released”) in [9] (Example 2.2, compound 1 μM) was “significant reduction in level of nitrite”; in series [9] (Example 4, compound 1 μM), “significant decrease in nitrite level; also recorded: significant reduction in level of nitrite”.

As for `COc1cc(/C=C(\C#N)C(=O)Nc2nnc(C(F)(F)F)s2)ccc1OCc1ccc(C(F)(F)F)cc1C(F)(F)F` [CCND-04], the “antagonist activity on ERα” value in series [11] was “no significant antagonist activity”. In addition, the “antagonist activity on ERRγ” value in series [12] is given as “no significant antagonist activity”.

As for `Cc1ccc(NC(=O)c2ccc(CN3CCN(C)CC3)cc2)cc1Nc1nccc(-c2cccnc2)n1` [Imatinib], the “protective effect in N27 cells” value in [2] (compound 10 μM) is recorded as “significant protective effect”.

For `CC(=O)N[C@@H](CS)C(=O)O` [NAC, N-acetylcysteine], in series [2] (NAC 10 mM), the “neuroprotective effect on N27 cell survival” value was “inhibit neuronal cell death” and the “neuronal survival as compared to LPS alone” value is on record as “significant increase in neuronal survival”. For the same compound, the “N27 cell survival … vs LPS alone” value in series [2] (Example 4.1, NAC 10 μM) is listed as “significant protective effect”. In series [2] (compound 10 μM), the “protective effect in N27 cells” value is given as “neuroprotective role”. Further, the “neuroprotective effect in N27 cells” value in [3] (NAC 1 mM) was “significant neuroprotective effect”. Moreover, the “level of nitrite released” value in series [9] (Example 2.2, NAC 10 mM) is reported as “significant reduction in level of nitrite”.

Take `Cc1cn(-c2cc(NC(=O)c3ccc(C)c(Nc4nccc(-c5cccnc5)n4)c3)cc(C(F)(F)F)c2)cn1` [Nilotinib]: the “protective effect in N27 cells” value in series [2] (compound 10 μM) is on record as “significant protective effect”.

As for `Cc1cc(Nc2ncc3cc(-c4c(Cl)cccc4Cl)c(=O)n(C)c3n2)ccc1F` [PD180970], the “neuroprotective effect on MPP+ induced toxicity” value in [1] is reported as “no significant neuroprotective effect”. Also, the “neuroprotective effect on N27 cell survival” value in series [2] (compound 10 μM) was “significant neuroprotective effect”. In addition, the “neuronal survival as compared to LPS alone” value in series [2] (compound 1 μM) was “significant increase in neuronal survival”. Besides, the “N27 cell survival … vs LPS alone” value in [2] (Example 4, compound 1 μM) is “significant protective effect; also recorded: significant increase in neuronal survival”. In [2] (Example 4), the “effect of compound alone on the cells, survival, nitrite release or morphology” value is reported as “no effect”. For the same compound, in series [2] (compound 10 μM), the “protective effect in N27 cells” value was “significant protective effect”. Besides, in series [3] (compound 10 μM), the “neuroprotective effect in N27 cells” value is recorded as “significant neuroprotective effect”. The “nF-κB induced SEAP activity” value in series [4] is given as “not in HEK-Blue™ TLR2 cells”; in series [10], “significant inhibitory effect”. In addition, in series [5], the “neuroprotective effect on H2O2 induced toxicity” value is given as “no significant neuroprotective effect”. Also, the “level of MCP-1 released by LPS induced BV2 cells” value in [6] is “significant reduction in levels of IL-6 and MCP-1”. Besides, the “level of IL-6 released by LPS induced BV2 cells” value in [7] is “significant reduction in level of IL-6”. In addition, the “levels of nitrite released by LPS treated BV2 cells” value in series [8] is given as “significant reduction in levels of nitrite”. Further, the “level of nitrite released” value in [9] (Example 2.2, compound 1 μM) is reported as “significant reduction in level of nitrite”; in [9] (Example 4, compound 1 μM), “significant decrease in nitrite level; also recorded: significant reduction in level of nitrite”.
